Measurements as given in US20130142739A1, “PROCESS FOR THE SYNTHESIS OF ISOTHIOCYANATES AND DERIVATIVES THEREOF AND USES OF SAME” (Auriga International, priority 2010, published 2013).
Like-named read-outs stand apart in the source and are kept apart here.

System: human melanocytes of the SKMel type
Experiment: Depigmentation: melanin production by melanocytes in culture, melanin content by spectrophotometry
Format: cell-based
Details: for Eff./Ref. to 5 μM (relative activity with respect to kojic acid at the same concentration): kojic acid = 1; for activity at 5 µM: SK-MEL3, 72 h, read-out: Resid. Pig. (%) (percentage of residual pigmentation); for residual pigmentation percentage: 100 μM
Description: Various synthesized molecules were tested in order to determine their depigmenting power. The idea was to evaluate the effect of each of them on the production of melanin by melanocytes maintained in a culture medium.
For these tests, 2 lines of melanocytes were cultivated, human melanocytes of the SKMel type on the one hand and a murine line of the B16F10 type on the other hand. Here, we only show the results obtained on the human line.
The melanin content was determined by spectrophotometry, after 3 days of incubation in the presence of the molecule to be tested and cell lysis.
Kojic acid, a well-known depigmenting agent is used as a reference for making a hierarchy of the results.
For each measurement, the analyses were repeated. The indicated value corresponds to the calculated average. When the experiments are repeated, the average variation coefficient of the residual pigmentation percentage is of the order of 3% (comprised between 1.5% and 6% (for 3 tests).
This list is neither exhaustive nor limiting and the same type of results was obtained for the other molecules.

[1] = 5 μM, human line SKMel, 3 days of incubation, melanin vs control culture (cells alone)

Row | Structure (SMILES) | Eff./Ref. to 5 μM (relative activity with respect to kojic acid at the same concentration) (5 μM, human line SKMel) | activity at 5 µM [1] [%] | residual pigmentation percentage (human line SKMel) [%] | activity at 5 µM (Homo sapiens) [%]
1 | CS(=O)(=O)CCCCN=C=S | 15 | 54 | – | –
2 | C[S+]([O-])CCCCN=C=S (stereo not shown) | 22 | 34 | – | –
3 | [O-][S+](CCCCN=C=S)c1ccccc1 (stereo not shown) | 10 | 71 | – | –
4 | C[S+]([O-])CCCCN (stereo not shown) [reference compound] | 11 | 67 | – | –
5 | CC(=O)CCCCN=C=S | 5 | 84 | – | –
6 | O=c1cc(CO)occ1O [kojic acid, Kojic acid, reference compound] | 1 | 97 | 73 | –
7 | CC[S+]([O-])CCCCN=C=S (stereo not shown) | 12 | – | – | 63
8 | C1CCNCC1 [reference compound] | 17 | 50 | – | –
9 | C[S+]([O-])CCCCNC(=S)NCCCC[S+](C)[O-] (stereo not shown) [Example 9, 1,3-bis-(4-(methylsulfinyl)butyl)-thiourea] | 27 | 20 | 14 | –
10 | C1COCCN1 [reference compound] | 5 | 86 | – | –
